Values of other authors in patent US7064136B2, “Compounds” (AstraZeneca AB, priority 2000, dated 2006).
Read-outs that look alike come from different tables or passages of the source. Non-standard residues stand in square brackets, D forms with d. Residues, ends and D or L forms follow the SMILES beside them. *: point of attachment. Cyclohexanecarbonyl = O=C(C1CCCCC1)*

Legend:
Neurokinin receptor [1] = system: Neurokinin receptor
Neurokinin receptor [2] = details: Elevated plus-maze
Neurokinin receptor [3] = details: Forced swim test (depression model); anti-depressant (only at 30 mg/kb bid); Vassout et al Neuropeptides 26/S1:38, 1994
Neurokinin receptor [4] = details: Light-dark box
Neurokinin receptor [5] = details: Marmoset human intruder; Walsh et al., Psychopharmacology 121:186-191, 1995
[6] = Teixeira et al., Eur J Pharmacol 5;311(1):7-14, 1996
[7] = Stratton et al., Eur. J. Pharmacol. 250: R11-12, 1993
[8] = Walsh et al., Psychopharmacology 121:186-191, 1995

| SMILES | Outcome (Neurokinin receptor [2]; [6]) | Outcome (Neurokinin receptor [4]; [7]) | Outcome (Neurokinin receptor [5]) | Outcome (Neurokinin receptor [4]; [8]) | also measured |
| --- | --- | --- | --- | --- | --- |
| Cc1cc(C)cc(C(=O)N2CC[C@H](NCc3ccnc4ccccc34)C[C@H]2Cc2ccccc2)c1 [CGP 49823] | – | – | – | – | Outcome (Neurokinin receptor [1]; Social interaction test, Vassout et al Neuropeptides 26/S1:38, 1994): anxiolytic; Outcome (Neurokinin receptor [1]; Social interaction, File Pharm Bio B 58(3):747-752, 1997): anxiolytic; Outcome (Neurokinin receptor [2]; Vassout et al Neuropeptides 26/S1:38, 1994): inactive anti-; Outcome (Neurokinin receptor [3]): depressant |
| CN(Cc1ccccc1)C(=O)[C@H](Cc1ccc2ccccc2c1)NC(=O)[C@@H]1C[C@@H](O)CN1C(=O)c1cn(C)c2ccccc12 [FK888] | anxiolytic | – | – | – | – |
| C[C@H](NC(=O)CNC(=O)C1CCCCC1)C(=O)N[C@H](Cc1c[nH]c2ccccc12)C(=O)N[C@@H](Cc1ccccc1)C(=O)N(C)C [GR100679] (Cyclohexanecarbonyl-GA[dW]F-NMe2) | – | anxiolytic | – | – | – |
| COC1(C[S@@+]([O-])c2ccccc2)CCN(CCc2c[nH]c3ccc(F)cc23)CC1 [GR159897] | – | – | anxiolytic | anxiolytic | – |
| CC(=O)NC1(c2ccccc2)CCN(CC[C@H](CN(C)C(=O)c2ccccc2)c2ccc(Cl)c(Cl)c2)CC1 [SR48968] | anxiolytic | anxiolytic | anxiolytic | anxiolytic | – |
